Test results reported in ChEMBL document CHEMBL1201862, “PubChem BioAssay data set” (2004).
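Cells were grown in 96-well plates and exposed to each compound for 48 hours at five concentrations; endpoints were interpolated linearly between bracketing concentrations, or set to the highest concentration if not reached. At the GI50, growth is halved.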 Active and inactive are the calls of the source. Rule as the data show it: active = GI50 up to about 1.1 µM and inactive = higher.

Assays:
Assay in all cases: NCI-60 cell line screen, 48 h
OVCAR-5 = system: OVCAR-5
SF-295 = system: SF-295
HCC 2998 = system: HCC 2998
HCT-116 = system: HCT-116
A549 = system: A549
Hs-578T = system: Hs-578T
SF-268 = system: SF-268
MDA-MB-231 = system: MDA-MB-231
UACC-62 = system: UACC-62
TK-10 = system: TK-10
DU-145 = system: DU-145
SR = system: SR
Malme-3M = system: Malme-3M
SN12C = system: SN12C
HCT-15 = system: HCT-15
SK-MEL-28 = system: SK-MEL-28
M14 = system: M14
EKVX = system: EKVX
NCI-H226 = system: NCI-H226
MDA-MB-435 = system: MDA-MB-435

Row | Compound | GI50 (OVCAR-5) | GI50 (SF-295) | GI50 (HCC 2998) | GI50 (HCT-116) | GI50 (A549) | GI50 (Hs-578T) | GI50 (SF-268) | GI50 (MDA-MB-231) | GI50 (UACC-62) | GI50 (TK-10) | GI50 (DU-145) | GI50 (SR) | GI50 (Malme-3M) | GI50 (SN12C) | GI50 (HCT-15) | GI50 (SK-MEL-28) | GI50 (M14) | GI50 (EKVX) | GI50 (NCI-H226) | GI50 (MDA-MB-435)
1 | C(/C=N/c1ccccc1)=C(/Nc1ccccc1)C12CC3CC(CC(C3)C1)C2 | 15.2 µM (inactive) | 16.6 µM (inactive) | 15.8 µM (inactive) | 13.2 µM (inactive) | 24.1 µM (inactive) | 37.5 µM (inactive) | 19.1 µM (inactive) | 16.3 µM (inactive) | 12.1 µM (inactive) | 21.4 µM (inactive) | 19.3 µM (inactive) | 11 µM (inactive) | 18.5 µM (inactive) | 18.8 µM (inactive) | 14.1 µM | 20.5 µM (inactive) | 12.7 µM (inactive) | 20.7 µM (inactive) | 19.2 µM (inactive) | 15.2 µM (inactive)
2 | CCN1CCC(O)(/C=C/c2ccccc2C)C(C(=O)/C=C/c2ccccc2C)C1 (stereo not given) | 1.97 µM (inactive) | 2.34 µM (inactive) | 1.31 µM (inactive) | 1.78 µM (inactive) | 3.1 µM (inactive) | 3.76 µM (inactive) | 3.87 µM (inactive) | 2.55 µM (inactive) | 2.97 µM (inactive) | 2.94 µM (inactive) | 1.79 µM (inactive) | 2.72 µM (inactive) | 4.08 µM (inactive) | 2.18 µM (inactive) | 1.56 µM | 2.39 µM (inactive) | 2.04 µM (inactive) | 4.06 µM (inactive) | 3.79 µM (inactive) | 2.38 µM (inactive)
3 | CCN(CC)CCN(C(=O)c1ccc(F)cc1)c1ccccc1N | > 10 µM (inactive) | > 10 µM (inactive) | > 10 µM (inactive) | > 10 µM (inactive) | > 10 µM (inactive) | > 10 µM (inactive) | > 10 µM (inactive) | > 10 µM (inactive) | > 10 µM (inactive) | > 10 µM (inactive) | > 10 µM (inactive) | > 10 µM (inactive) | > 10 µM (inactive) | > 10 µM (inactive) | > 10 µM | > 10 µM (inactive) | > 10 µM (inactive) | > 10 µM (inactive) | 3.72 µM (inactive) | > 10 µM (inactive)
4 | COc1cc(C2c3cc4c(cc3OC(N3CCCCC3)C2C)OCO4)cc(OC)c1OC (stereo not given) | 12.7 µM (inactive) | 1.75 µM (inactive) | 2.9 µM (inactive) | 3.37 µM (inactive) | 4.04 µM (inactive) | 2.09 µM (inactive) | 9.02 µM (inactive) | 4.98 µM (inactive) | 3.53 µM (inactive) | 7.71 µM (inactive) | 3.49 µM (inactive) | 3.27 µM (inactive) | 5.83 µM (inactive) | 6.07 µM (inactive) | 3.65 µM | 10.5 µM (inactive) | 2.83 µM (inactive) | 10.3 µM (inactive) | 3.39 µM (inactive) | 0.67 µM (active)
5 | CC1CCC(O)/C=C/C(=O)OC(C)C(O)/C=C/C(=O)O1 (stereo not given) | > 100 µM (inactive) | > 100 µM (inactive) | > 100 µM (inactive) | > 60.5 µM (inactive) | > 100 µM (inactive) | > 100 µM (inactive) | > 100 µM (inactive) | > 100 µM (inactive) | > 100 µM (inactive) | > 83.8 µM (inactive) | > 100 µM (inactive) | 51.5 µM (inactive) | > 100 µM (inactive) | > 100 µM (inactive) | > 94 µM | > 100 µM (inactive) | > 56.1 µM (inactive) | > 100 µM (inactive) | > 100 µM (inactive) | > 100 µM (inactive)
